The values that follow come from ChEMBL document CHEMBL1629546 (Antimicrob Agents Chemother, 2008).

Series [1] deals with Bacillus anthracis. The experiment in a line: Antimicrobial activity against Bacillus anthracis infected in in vitro hollow fiber PK/PD model assessed as cell killing at 800 mg administered as 4 divided doses every 6 hrs. It counts as functional, organism-based.
Series [2] deals with Bacillus anthracis. The settings on record: in vivo, 24 h.
The subject of series [3] is Bacillus anthracis. Particulars: in vivo.
Series [4] relates to Bacillus anthracis. In words: Antimicrobial activity against Bacillus anthracis infected in in vitro hollow fiber PK/PD model assessed as bacterial regrowth at 100 mg administered once every 24 hrs. The class given is functional, organism-based.
For series [5], the system named is Bacillus anthracis. In words: Antimicrobial activity against Bacillus anthracis infected in in vitro hollow fiber PK/PD model assessed as reduction in bacterial burden at 700 mg administered once every 24 hrs. It counts as functional, organism-based.
Series [6] concerns Bacillus anthracis. The settings on record: in vivo, 24 h. This is another data set of the same source.
In series [7] the test system is Bacillus anthracis. Particulars: in vivo. The source holds these as a separate data set.
For series [8], the system named is Bacillus anthracis. The settings on record: in vivo, 24 h. The source holds these as a separate data set.
Series [9] relates to Bacillus anthracis. The settings on record: in vivo, 24 h. This is another data set of the same source.
Series [10] concerns Bacillus anthracis. The settings on record: in vivo. This is another data set of the same source.
Series [11] deals with Bacillus anthracis. In words: Antimicrobial activity against Bacillus anthracis infected in in vitro hollow fiber PK/PD model assessed as cell killing at 400 mg administered once every 24 hrs. The class given is functional, organism-based.
In series [12] the test system is Bacillus anthracis. Particulars: in vivo, 24 h. This is another data set of the same source.
Series [13] deals with Bacillus anthracis. The experiment in a line: Antimicrobial activity against Bacillus anthracis infected in in vitro hollow fiber PK/PD model assessed as bacterial regrowth at 600 mg administered once every 24 hrs. It counts as functional, organism-based.
Series [14] deals with Bacillus anthracis. Particulars: in vivo. The source holds these as a separate data set.
Series [15] relates to Bacillus anthracis. The experiment in a line: Antimicrobial activity against Bacillus anthracis infected in in vitro hollow fiber PK/PD model assessed as bacterial killing at 800 mg administered once every 24 hrs. It counts as functional, organism-based.
Series [16] concerns Bacillus anthracis. Particulars: in vivo, 24 h. The source holds these as a separate data set.
For series [17], the system named is Bacillus anthracis. In words: Antimicrobial activity against Bacillus anthracis infected in in vitro hollow fiber PK/PD model assessed as cell killing at 200 mg administered once every 24 hrs. It counts as functional, organism-based.
Series [18] has as its system Bacillus anthracis. In words: Antimicrobial activity against Bacillus anthracis infected in in vitro hollow fiber PK/PD model assessed as bacterial regrowth at 200 mg administered once every 24 hrs. It counts as functional, organism-based.
Series [19] deals with Bacillus anthracis. The settings on record: in vivo, 24 h. This is another data set of the same source.
Series [20] deals with Bacillus anthracis. The settings on record: in vivo. The source holds these as a separate data set.
Series [21] deals with Bacillus anthracis. In words: Antimicrobial activity against Bacillus anthracis infected in in vitro hollow fiber PK/PD model assessed as cell killing at 800 mg administered as 2 divided doses every 12 hrs. The class given is functional, organism-based.
Series [22] relates to Bacillus anthracis. In words: Antimicrobial activity against Bacillus anthracis infected in in vitro hollow fiber PK/PD model assessed as prevention of bacterial regrowth at 800 mg administered once every 24 hrs. It counts as functional, organism-based.
The subject of series [23] is Bacillus anthracis. In words: Antimicrobial activity against Bacillus anthracis infected in in vitro hollow fiber PK/PD model assessed as bacterial regrowth at 300 mg administered once every 24 hrs. The class given is functional, organism-based.
Series [24] has as its system Bacillus anthracis. Particulars: in vivo, 24 h. This is another data set of the same source.
Series [25] has as its system Bacillus anthracis. The settings on record: in vivo. The source holds these as a separate data set.
Series [26] concerns Bacillus anthracis. Particulars: in vivo, 24 h. The source holds these as a separate data set.
Series [27] relates to Bacillus anthracis. The settings on record: in vivo, 24 h. The source holds these as a separate data set.
Series [28] concerns Bacillus anthracis. In words: Antimicrobial activity against Bacillus anthracis infected in in vitro hollow fiber PK/PD model assessed as bacterial killing at 600 mg administered once every 24 hrs for 15 days. The class given is functional, organism-based.
Series [29] relates to Bacillus anthracis. In words: Antimicrobial activity against Bacillus anthracis infected in in vitro hollow fiber PK/PD model assessed as bacterial regrowth at 500 mg administered once every 24 hrs. The class given is functional, organism-based.
Series [30] has as its system Bacillus anthracis. The experiment in a line: Antimicrobial activity against Bacillus anthracis infected in in vitro hollow fiber PK/PD model assessed as prevention of bacterial regrowth at 700 mg administered once every 24 hrs. It counts as functional, organism-based.
Series [31] concerns Bacillus anthracis. The experiment in a line: Antimicrobial activity against Bacillus anthracis infected in in vitro hollow fiber PK/PD model assessed as bacterial killing at 500 mg administered once every 24 hrs for 15 days. The class given is functional, organism-based.
Series [32] relates to Bacillus anthracis. The settings on record: in vivo. This is another data set of the same source.
Series [33] concerns Bacillus anthracis. Particulars: in vivo, 24 h. The source holds these as a separate data set.
For series [34], the system named is Bacillus anthracis. The settings on record: in vivo. This is another data set of the same source.
In series [35] the test system is Bacillus anthracis. Particulars: in vivo. This is another data set of the same source.
Series [36] relates to Bacillus anthracis. In words: Antimicrobial activity against Bacillus anthracis infected in in vitro hollow fiber PK/PD model assessed as cell killing at 300 mg administered once every 24 hrs. The class given is functional, organism-based.
In series [37] the test system is Bacillus anthracis. Particulars: in vivo, 24 h. The source holds these as a separate data set.
In series [38] the test system is Bacillus anthracis. The experiment in a line: Antimicrobial activity against Bacillus anthracis infected in in vitro hollow fiber PK/PD model assessed as cell killing at 800 mg administered once every 24 hrs. The class given is functional, organism-based.
Series [39] relates to Bacillus anthracis. The settings on record: in vivo. The source holds these as a separate data set.
In series [40] the test system is Bacillus anthracis. The experiment in a line: Antimicrobial activity against Bacillus anthracis infected in in vitro hollow fiber PK/PD model assessed as bacterial regrowth at 400 mg administered once every 24 hrs. The class given is functional, organism-based.
Series [41] concerns Bacillus anthracis. The settings on record: in vivo, 24 h. The source holds these as a separate data set.
For series [42], the system named is Bacillus anthracis. In words: Antimicrobial activity against wild-type Bacillus anthracis. It counts as functional.

Converted amounts (≈) assume the structure as drawn. The source made the active and inactive calls.

Turning to `CC(=O)NC[C@H]1CN(c2ccc(N3CCOCC3)c(F)c2)C(=O)O1` [LINEZOLID], the result with Bacillus anthracis [1], in the series on Bacillus anthracis [4], in the series on Bacillus anthracis [5], in the series with Bacillus anthracis [11], in the series with Bacillus anthracis [13] and with Bacillus anthracis [15] was Active. The outcome in the series with Bacillus anthracis [17], in the series with Bacillus anthracis [18], in the series with Bacillus anthracis [21], in the series with Bacillus anthracis [22], in the series with Bacillus anthracis [23] and with Bacillus anthracis [28] was Active. In addition, the outcome with Bacillus anthracis [29], with Bacillus anthracis [30], in the series on Bacillus anthracis [31], in the series with Bacillus anthracis [36], in the series with Bacillus anthracis [38] and in the series on Bacillus anthracis [40] was Active. In addition, the fAUC with Bacillus anthracis [2] came out at 71422 ng·h/mL; with Bacillus anthracis [3] it was 90081 ng·h/mL; in the series on Bacillus anthracis [6], 91106 ng·h/mL; in the series with Bacillus anthracis [7], 36244 ng·h/mL; with Bacillus anthracis [8], 78508 ng·h/mL; in the series on Bacillus anthracis [9], 56283 ng·h/mL. Further, the fAUC was 91284 ng·h/mL in the series on Bacillus anthracis [10]; 45553 ng·h/mL with Bacillus anthracis [12]; 56258 ng·h/mL in the series on Bacillus anthracis [14]; 22498 ng·h/mL with Bacillus anthracis [16]; 78508 ng·h/mL in the series with Bacillus anthracis [19]; 71540 ng·h/mL in the series with Bacillus anthracis [20]. For the same compound, the fAUC in the series on Bacillus anthracis [24] turned out to be 90106 ng·h/mL; with Bacillus anthracis [25] it was 71300 ng·h/mL; in the series with Bacillus anthracis [26], 11249 ng·h/mL; in the series on Bacillus anthracis [27], 33746 ng·h/mL; in the series on Bacillus anthracis [32] it was 56245 ng·h/mL; in the series on Bacillus anthracis [33] it was 71422 ng·h/mL. The fAUC in the series with Bacillus anthracis [34] was 115702 ng·h/mL; with Bacillus anthracis [35] it was 91216 ng·h/mL; in the series with Bacillus anthracis [37] it was 91106 ng·h/mL; with Bacillus anthracis [39], 74371 ng·h/mL; in the series with Bacillus anthracis [41], 56283 ng·h/mL. In the series on Bacillus anthracis [42], the MIC amounted to 3 µg/mL (≈ 8.89 µM).

On to `O=C(O)c1cn(C2CC2)c2cc(N3CCNCC3)c(F)cc2c1=O` [CIPROFLOXACIN], for which the fAUC with Bacillus anthracis [3] was 22356 ng·h/mL.

As a reminder, the MIC is the smallest concentration in the dilution series that meets the test's criterion for growth inhibition.
